Laboratory results: patent US20230119894A1, “THERAPEUTIC OR PROPHYLACTIC METHOD FOR DIABETES USING COMBINATION MEDICINE” (Japan Tobacco Inc., priority 2019, published 2023)
Marks after values point to notes of the source that are not given here.

Experiments:
[1] = tested on: Salmonella typhimurium TA100; test: Ames test (reverse mutation test), TA100; settings: for Number of revertant colonies: TA100; for Number of revertant colonies TA100: S9 Mix +, mean number of each plate
Method: (§1) Metabolites 1, 3, and 5 and Metabolites C to H were each tested herein. The purpose of this test is to evaluate the potential of each metabolite to induce reverse mutations in the standard strains of Salmonella typhimurium (TA98, TA1537, TA100, and TA1535) and Escherichia coli (WP2uvrA), in either the presence or absence of a rat liver metabolic activation system (S9 mix).
(§2) The solvent used herein was dimethyl sulfoxide (DMSO, 100 μL/plate).
(§3) The test was performed by the pre-incubation method with or without S9 mix. When the test was performed without S9 mix, sodium phosphate buffer solution (pH 7.4) was added.
(§4) 0.5 mL of S9 mix or 0.5 mL of 0.1 mol/L sodium phosphate buffer solution (pH 7.4), and 0.1 mL of the bacterial culture solution were added to a test tube containing 0.1 mL of the negative control formulation (DMSO alone), the metabolite, or the positive control formulation. The mixtures were pre-incubated at 37° C. for 20 minutes while shaking. After the pre-incubation period, 2 mL of top agar were added and the mixtures were vortex-mixed and seeded onto plates. Two plates per treatment were used. Each plate was incubated at 37±1° C. for 48 hours or more and the revertant colonies were counted. The mean number of revertant colonies for each treatment plate was then calculated. […] Evaluation was based on mean values with no statistical comparisons being used.

Escherichia coli WP2uvrA = test: Ames test (reverse mutation test), WP2uvrA; type: cell-based; settings: for Number of revertant colonies: WP2uvrA; for Number of revertant colonies WP2uvrA: S9 Mix +, mean number of each plate
[2] = tested on: Salmonella typhimurium TA98; test: Ames test (reverse mutation test), TA98; settings: for Number of revertant colonies: TA98; for Number of revertant colonies TA98: S9 Mix +, mean number of each plate
Method: as §1, §2, §3, §4

[3] = tested on: Salmonella typhimurium TA1535; test: Ames test (reverse mutation test), TA1535
Method: as §1, §2, §3, §4

[4] = tested on: Salmonella typhimurium TA1537; test: Ames test (reverse mutation test), TA1537; settings: for Number of revertant colonies: TA1537; for Number of revertant colonies TA1537: S9 Mix +, mean number of each plate
Method: as §1, §2, §3, §4

SMILES: Nc1cc(-c2cc(F)cc(OC(F)(F)F)c2)n(-c2cncc(F)c2)n1 [Metabolite 3]
- Number of revertant colonies ([1]; S9 mix +, 6.9 μg/plate): 109
- Number of revertant colonies ([1]; S9 mix +, 21 μg/plate): 119
- Number of revertant colonies ([1]; S9 mix +, 62 μg/plate): 118
- Number of revertant colonies ([1]; S9 mix +, 185 μg/plate): 125
- Number of revertant colonies ([1]; S9 mix +, 556 μg/plate): 115*†
- Number of revertant colonies ([1]; S9 mix +, 1667 μg/plate): 97*†
- Number of revertant colonies ([1]; S9 mix +, 5000 μg/plate): 92*†
- Number of revertant colonies ([1]; S9 mix −, 6.9 μg/plate): 89
- Number of revertant colonies ([1]; S9 mix −, 21 μg/plate): 90
- Number of revertant colonies ([1]; S9 mix −, 62 μg/plate): 87
- Number of revertant colonies ([1]; S9 mix −, 185 μg/plate): 86
- Number of revertant colonies ([1]; S9 mix −, 556 μg/plate): 6*
- Number of revertant colonies ([1]; S9 mix −, 1667 μg/plate): 5*†
- Number of revertant colonies ([1]; S9 mix −, 5000 μg/plate): 5*†
- Number of revertant colonies (Escherichia coli WP2uvrA; S9 mix +, 6.9 μg/plate): 19
- Number of revertant colonies (Escherichia coli WP2uvrA; S9 mix +, 21 μg/plate): 19
- Number of revertant colonies (Escherichia coli WP2uvrA; S9 mix +, 62 μg/plate): 19
- Number of revertant colonies (Escherichia coli WP2uvrA; S9 mix +, 185 μg/plate): 19
- Number of revertant colonies (Escherichia coli WP2uvrA; S9 mix +, 556 μg/plate): 17*
- Number of revertant colonies (Escherichia coli WP2uvrA; S9 mix +, 1667 μg/plate): 14*†
- Number of revertant colonies (Escherichia coli WP2uvrA; S9 mix +, 5000 μg/plate): 9*†
- Number of revertant colonies (Escherichia coli WP2uvrA; S9 mix −, 6.9 μg/plate): 21
- Number of revertant colonies (Escherichia coli WP2uvrA; S9 mix −, 21 μg/plate): 16
- Number of revertant colonies (Escherichia coli WP2uvrA; S9 mix −, 62 μg/plate): 23
- Number of revertant colonies (Escherichia coli WP2uvrA; S9 mix −, 185 μg/plate): 20
- Number of revertant colonies (Escherichia coli WP2uvrA; S9 mix −, 556 μg/plate): 16*
- Number of revertant colonies (Escherichia coli WP2uvrA; S9 mix −, 1667 μg/plate): 13*†
- Number of revertant colonies (Escherichia coli WP2uvrA; S9 mix −, 5000 μg/plate): 8*†
- Number of revertant colonies ([2]; S9 mix +, 6.9 μg/plate): 35
- Number of revertant colonies ([2]; S9 mix +, 21 μg/plate): 37
- Number of revertant colonies ([2]; S9 mix +, 62 μg/plate): 35
- Number of revertant colonies ([2]; S9 mix +, 185 μg/plate): 36
- Number of revertant colonies ([2]; S9 mix +, 556 μg/plate): 22*
- Number of revertant colonies ([2]; S9 mix +, 1667 μg/plate): 20*†
- Number of revertant colonies ([2]; S9 mix +, 5000 μg/plate): 16*†
- Number of revertant colonies ([2]; S9 mix −, 6.9 μg/plate): 30
- Number of revertant colonies ([2]; S9 mix −, 21 μg/plate): 30
- Number of revertant colonies ([2]; S9 mix −, 62 μg/plate): 28
- Number of revertant colonies ([2]; S9 mix −, 185 μg/plate): 28
- Number of revertant colonies ([2]; S9 mix −, 556 μg/plate): 12*
- Number of revertant colonies ([2]; S9 mix −, 1667 μg/plate): 9*†
- Number of revertant colonies ([2]; S9 mix −, 5000 μg/plate): 7*†
- Number of revertant colonies ([3]; S9 mix +, 6.9 μg/plate): 8
- Number of revertant colonies ([3]; S9 mix +, 21 μg/plate): 9
- Number of revertant colonies ([3]; S9 mix +, 62 μg/plate): 11
- Number of revertant colonies ([3]; S9 mix +, 185 μg/plate): 9
- Number of revertant colonies ([3]; S9 mix +, 556 μg/plate): 4*
- Number of revertant colonies ([3]; S9 mix +, 1667 μg/plate): 3*†
- Number of revertant colonies ([3]; S9 mix +, 5000 μg/plate): 1*†
- Number of revertant colonies ([3]; S9 mix −, 6.9 μg/plate): 9
- Number of revertant colonies ([3]; S9 mix −, 21 μg/plate): 11
- Number of revertant colonies ([3]; S9 mix −, 62 μg/plate): 10
- Number of revertant colonies ([3]; S9 mix −, 185 μg/plate): 8
- Number of revertant colonies ([3]; S9 mix −, 556 μg/plate): 8*
- Number of revertant colonies ([3]; S9 mix −, 1667 μg/plate): 0*†
- Number of revertant colonies ([3]; S9 mix −, 5000 μg/plate): 0*†
- Number of revertant colonies ([4]; S9 mix +, 6.9 μg/plate): 12
- Number of revertant colonies ([4]; S9 mix +, 21 μg/plate): 13
- Number of revertant colonies ([4]; S9 mix +, 62 μg/plate): 12
- Number of revertant colonies ([4]; S9 mix +, 185 μg/plate): 12
- Number of revertant colonies ([4]; S9 mix +, 556 μg/plate): 8*
- Number of revertant colonies ([4]; S9 mix +, 1667 μg/plate): 0*†
- Number of revertant colonies ([4]; S9 mix +, 5000 μg/plate): 1*†
- Number of revertant colonies ([4]; S9 mix −, 6.9 μg/plate): 9
- Number of revertant colonies ([4]; S9 mix −, 21 μg/plate): 8
- Number of revertant colonies ([4]; S9 mix −, 62 μg/plate): 8
- Number of revertant colonies ([4]; S9 mix −, 185 μg/plate): 8
- Number of revertant colonies ([4]; S9 mix −, 556 μg/plate): 3*
- Number of revertant colonies ([4]; S9 mix −, 1667 μg/plate): 3*†
- Number of revertant colonies ([4]; S9 mix −, 5000 μg/plate): 2*†

SMILES: Nc1cc(-c2cc(F)cc(OC(F)(F)F)c2)n(-c2cncc(C(F)(F)F)c2)n1 [Metabolite 5]
- Number of revertant colonies ([3]; S9 mix +, 185 μg/plate): 9
- Number of revertant colonies ([3]; S9 mix −, 6.9 μg/plate): 9
- Number of revertant colonies ([3]; S9 mix −, 556 μg/plate): 6

SMILES: CC(C)(OCc1cc(F)cc(-c2cc(N)nn2-c2ccc(F)cc2)c1)C(F)(F)F [Metabolite D, reference compound]
- Number of revertant colonies TA100 ([1]; dose 2.3 μg/plate): 139
- Number of revertant colonies TA100 ([1]; dose 6.9 μg/plate): 203
- Number of revertant colonies TA100 ([1]; dose 21 μg/plate): 237
- Number of revertant colonies TA100 ([1]; dose 62 μg/plate): 185
- Number of revertant colonies TA100 ([1]; dose 185 μg/plate): 151
- Number of revertant colonies TA100 ([1]; dose 556 μg/plate): 119
- Number of revertant colonies TA100 ([1]; dose 1667 μg/plate): 100
- Number of revertant colonies WP2uvrA (Escherichia coli WP2uvrA; dose 2.3 μg/plate): 31
- Number of revertant colonies WP2uvrA (Escherichia coli WP2uvrA; dose 21 μg/plate): 24
- Number of revertant colonies WP2uvrA (Escherichia coli WP2uvrA; dose 185 μg/plate): 23
- Number of revertant colonies WP2uvrA (Escherichia coli WP2uvrA; dose 556 μg/plate): 32
- Number of revertant colonies WP2uvrA (Escherichia coli WP2uvrA; dose 1667 μg/plate): 28
- Number of revertant colonies WP2uvrA (Escherichia coli WP2uvrA; dose 5000 μg/plate): 28
- Number of revertant colonies TA98 ([2]; dose 2.3 μg/plate): 39
- Number of revertant colonies TA98 ([2]; dose 6.9 μg/plate): 42
- Number of revertant colonies TA98 ([2]; dose 21 μg/plate): 52
- Number of revertant colonies TA98 ([2]; dose 62 μg/plate): 47
- Number of revertant colonies TA98 ([2]; dose 185 μg/plate): 49
- Number of revertant colonies TA98 ([2]; dose 556 μg/plate): 51
- Number of revertant colonies TA98 ([2]; dose 1667 μg/plate): 57
- Number of revertant colonies TA98 ([2]; dose 5000 μg/plate): 88
- Number of revertant colonies TA1537 ([4]; dose 2.3 μg/plate): 14
- Number of revertant colonies TA1537 ([4]; dose 6.9 μg/plate): 20
- Number of revertant colonies TA1537 ([4]; dose 62 μg/plate): 18
- Number of revertant colonies TA1537 ([4]; dose 185 μg/plate): 15
- Number of revertant colonies TA1537 ([4]; dose 556 μg/plate): 15
- Number of revertant colonies TA1537 ([4]; dose 1667 μg/plate): 19
- Number of revertant colonies TA1537 ([4]; dose 5000 μg/plate): 24
